Test results reported in patent publication US5830868A, “Substituted DI- and tripeptide inhibitors of protein: farnesyl transferase” (Warner-Lambert Company, priority 1996, dated 1998).

Biological target: T1, rat brain farnesyl protein transferase (PFT) (Rattus norvegicus, UniProt Q02293+Q04631)
T1 construct: 40-fold purified rat brain farnesyl protein transferase; from tissue; host or cells: rat brain
Experiment: PFT inhibitory activity assay (radiolabeled farnesyl pyrophosphate, biotinyl peptide, streptavidin beads)
Format: biochemical
Settings: 40-fold purified rat brain enzyme; 0.12 μM [3H]FPP, 0.1 μM biotinyl-Ahe-Tyr-Lys-Cys-Val-Ile-Met; 37° C., 30 minutes; read-out: IC50 (μM) against PFT
Protocol: The PFT inhibitory activity of compounds of Formula I was assayed in 30 mM potassium phosphate buffer, pH 7.4, containing 7 mM DTT, 1.2 mM MgCl2, 0.1 mM leupeptin, 0.1 mM pepstatin and 0.2 mM phenylmethylsulfonyl fluoride. Assays were performed in 96 well plates (Wallec) and employed solutions composed of varying concentrations of a compound of Formula I in 100% DMSO. Upon addition of both substrates, radiolabeled farnesyl pyrophosphate ([1-^3 H], specific activity 15--30 Ci/mmol, final concentration 0.12 μM) and (biotinyl)-Ahe-Tyr-Lys-Cys-Val-Ile-Met peptide (final concentration 0.1 μM), the enzyme reaction was started by addition of 40-fold purified rat brain farnesyl protein transferase. After incubation at 37° C. for 30 minutes, the reaction was terminated by diluting the reaction 2.5-fold with a stop buffer containing 1.5M magnesium acetate, 0.2M H3 PO4, 0.5% BSA, and strepavidin beads (Amersham) at a concentration of 1.3 mg/mL. After allowing the plate to settle for 30 minutes at room temperature, radioactivity was quantitated on a microBeta counter (model 1450, Wallec). Compounds of Formula I show IC50 values of 0.5 nM to 80 μM (see data table) in this assay and are thus valuable inhibitors of protein: farnesyl transferase enzyme which may be used in the medical treatment of tissue proliferative diseases, including cancer and restenosis.

T1 sequence (Q02293 whole entry, one chain of several): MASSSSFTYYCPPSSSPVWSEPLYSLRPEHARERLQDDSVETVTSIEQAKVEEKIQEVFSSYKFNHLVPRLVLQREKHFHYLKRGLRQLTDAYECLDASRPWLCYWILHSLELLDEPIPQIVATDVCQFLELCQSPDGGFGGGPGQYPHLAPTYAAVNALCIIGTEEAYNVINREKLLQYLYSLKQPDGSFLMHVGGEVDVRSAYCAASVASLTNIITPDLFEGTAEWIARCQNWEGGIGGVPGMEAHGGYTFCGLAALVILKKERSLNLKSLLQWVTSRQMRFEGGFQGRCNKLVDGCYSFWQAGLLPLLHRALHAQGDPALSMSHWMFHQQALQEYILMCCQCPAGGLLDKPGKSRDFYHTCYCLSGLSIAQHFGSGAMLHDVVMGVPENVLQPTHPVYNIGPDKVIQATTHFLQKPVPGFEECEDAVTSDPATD

IC50	Compound
0.64 µM	O=C(N[C@H](Cc1c[nH]cn1)C(=O)N[C@@H](Cc1ccc(OCc2ccccc2)cc1)C(=O)NCCCOc1ccccc1)OCc1ccccc1 [5 (23), BnOCO--D--His--Tyr(OBn)CONHCH2 CH2 CH2 OPh]
20 µM	O=C(Nc1cccc2ccccc12)N[C@H](Cc1c[nH]cn1)C(=O)N[C@@H](Cc1ccc(OCc2ccccc2)cc1)C(=O)NCCCCc1ccccc1 [5 (59), 1-napthyl-NHCO--D--His--Tyr(OBn)CONHCH2 CH2 CH2 CH2 Ph]
